Laboratory results as given in patent publication US9169260B2 (MERCK SHARP & DOHME CORP., priority 2011, dated 2015).

Biological target: GST tagged IRAK-4 (Homo sapiens (Human), UniProt Q9NWZ3)
Assay: IRAK-4 Kinase Assay (IMAP fluorescence polarization)
Format: biochemical
Conditions: 100 μM ATP, 30 minutes at 25° C.
Procedure, shortened: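 Activity was read by IMAP fluorescence polarization, where phosphopeptide binding to M(III) nanoparticles raises FP. The 30-minute, 25° C reaction used 100 μM ATP, 100 nM RP7030 substrate and 0.5 nM GST-IRAK-4 in pH 7.2 Tris buffer with MgCl2, DTT and Tween 20.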

GST tagged IRAK-4, sequence (Q9NWZ3 whole entry): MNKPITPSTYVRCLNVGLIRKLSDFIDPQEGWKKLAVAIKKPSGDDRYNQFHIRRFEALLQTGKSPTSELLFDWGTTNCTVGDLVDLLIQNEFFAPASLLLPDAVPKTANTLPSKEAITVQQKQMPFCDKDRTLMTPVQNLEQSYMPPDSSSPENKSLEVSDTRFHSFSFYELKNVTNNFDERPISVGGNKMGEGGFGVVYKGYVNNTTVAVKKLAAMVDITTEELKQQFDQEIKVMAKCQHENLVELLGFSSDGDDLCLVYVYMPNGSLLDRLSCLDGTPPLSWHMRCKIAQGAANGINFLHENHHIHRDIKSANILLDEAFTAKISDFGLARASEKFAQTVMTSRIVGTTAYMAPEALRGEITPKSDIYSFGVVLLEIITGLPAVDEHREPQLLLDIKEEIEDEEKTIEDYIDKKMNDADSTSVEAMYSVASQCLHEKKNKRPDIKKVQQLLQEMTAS

IC50 [µM] | IC50 (μM) [µM] | SMILES
< 0.1 |  | Cc1ccc(-n2nc(-c3ccc(S(=O)(=O)C4CC4)cc3)cc2NC(=O)c2cnn3cccnc23)cc1 [Example 336, N-{3-[4-(cyclopropylsulfonyl)phenyl]-1-(4-methylphenyl)-1H-pyrazol-5-yl}pyrazolo[1,5-a]pyrimidine-3-carboxamide]
< 0.1 |  | Cc1ccc(-n2nc(-c3ccc(NS(C)(=O)=O)cc3)cc2NC(=O)c2cnn3cccnc23)cc1 [Example 103, N-(3-(4-(methylsulfonamido)phenyl)-1-(p-tolyl)-1H-pyrazol-5-yl)pyrazolo[1,5-a]pyrimidine-3-carboxamide]
< 0.1 |  | CCN(CC)S(=O)(=O)c1ccc(-c2cc(NC(=O)c3cnn4cccnc34)n(-c3ccc(C)cc3)n2)cc1 [Example 343, N-{3-[4-(diethylsulfamoyl)phenyl]-1-(4-methylphenyl)-1H-pyrazol-5-yl}pyrazolo[1,5-a]pyrimidine-3-carboxamide]
 | > 1 | Cc1ccc(-n2nc(C3CCN(S(=O)(=O)c4ccc5ccccc5c4)CC3)cc2NC(=O)c2cnn3cccnc23)cc1 [Example 377, N-{1-(4-methylphenyl)-3-[1-(naphthalen-2-ylsulfonyl)piperidin-4-yl]-1H-pyrazol-5-yl}pyrazolo[1,5-a]pyrimidine-3-carboxamide]
 | > 1 | Cc1ccc(-n2nc(C3CCN(S(=O)(=O)c4ccc(Cl)s4)CC3)cc2NC(=O)c2cnn3cccnc23)cc1 [Example 393, N-[3-{1-[(5-chlorothiophen-2-yl)sulfonyl]piperidin-4-yl}-1-(4-methylphenyl)-1H-pyrazol-5-yl]pyrazolo[1,5-a]pyrimidine-3-carboxamide]
< 0.1 |  | Cc1ccc(-n2nc(-c3cccnc3)cc2NC(=O)c2cnn3cccnc23)cc1 [Example 123, N-(3-(pyridin-3-yl)-1-(p-tolyl)-1H-pyrazol-5-yl)pyrazolo[1,5-a]pyrimidine-3-carboxamide]

The remaining lines, values behind:

SMILES | IC50 [µM] | IC50 (μM) [µM]
Cc1ccc(-n2nc(C3CCN(C4CCC(C#N)CC4)CC3)cc2NC(=O)c2cnn3cccnc23)nc1 (stereo not drawn) [Example 265, N-{3-[1-(4-cyanocyclohexyl)piperidin-4-yl]-1-(5-methylpyridin-2-yl)-1H-pyrazol-5-yl}pyrazolo[1,5-a]pyrimidine-3-carboxamide] | < 0.1 | 
CC1(c2cc(NC(=O)c3cnn4cccnc34)n(-c3ccc(CN)cn3)n2)CC1 [Example 176, N-(1-(5-(aminomethyl)pyridin-2-yl)-3-(1-methylcyclopropyl)-1H-pyrazol-5-yl)pyrazolo[1,5-a]pyrimidine-3-carboxamide] | < 0.1 | 
CS(=O)(=O)N1CCC(c2cc(NC(=O)c3cnn4cccnc34)n(-c3ccc(Br)cc3F)n2)CC1 [Example 71, N-(1-(4-bromo-2-fluorophenyl)-3-(1-(methylsulfonyl)piperidin-4-yl)-1H-pyrazol-5-yl)pyrazolo[1,5-a]pyrimidine-3-carboxamide] |  | < 1
COc1ccc(S(=O)(=O)N2CCC(c3cc(NC(=O)c4cnn5cccnc45)n(-c4ccc(C)cc4)n3)CC2)cc1OC [Example 359, N-[3-{1-[(3,4-dimethoxyphenyl)sulfonyl]piperidin-4-yl}-1-(4-methylphenyl)-1H-pyrazol-5-yl]pyrazolo[1,5-a]pyrimidine-3-carboxamide] |  | < 1
CNS(=O)(=O)c1ccc(-c2cc(NC(=O)c3cnn4cc(C5CC5)cnc34)n(-c3ccc(C)cn3)n2)cc1 [Example 195, 6-cyclopropyl-N-(1-(5-methylpyridin-2-yl)-3-(4-(N-methylsulfamoyl)phenyl)-1H-pyrazol-5-yl)pyrazolo[1,5-a]pyrimidine-3-carboxamide] |  | < 1
O=C(Nc1cc(C2CCNCC2)nn1-c1ccc(Cl)cc1)c1cnn2cccnc12 [Example 9, N-(1-(4-chlorophenyl)-3-(piperidin-4-yl)-1H-pyrazol-5-yl)pyrazolo[1,5-a]pyrimidine-3-carboxamide] |  | < 1
